# Several values for one entry are separate records, joined by “and”; a condition that tells them apart may be missing. Identical values can stand only once. Like-named read-outs stand apart in the source and are kept apart here.
# What was measured:
# [1] = tested on: normal human dermal fibroblasts (NHDF); assay: Cytotoxicity MTS assay on normal fibroblasts; format: cell-based; conditions: 48 h, tested 0.01-0.3 mM, read-out: Half maximal inhibition concentration (IC50)
# Procedure: (§1) Cell culture: NHDF, HeLa, HOS, HepG2, MCF7, MeWo and CT-26 cells were cultivated in complete Eagle’s Minimal Essential Medium alpha (aMEM) containing a 1% Penicillin–Streptomycin–Amphotericin B mixture and a 10% fetal bovine serum under 5% CO2 humidified atmosphere at 37 °C. LN-229 cells were cultivated in DMEM with a 1% Penicillin–Streptomycin–Amphotericin B mixture and a 5% fetal bovine serum. U-118 cells were cultivated in DMEM with a 1% Penicillin–Streptomycin–Amphotericin B mixture and a 10% fetal bovine serum. StemPro™ Accutase™ Cell Dissociation Reagent was used for passaging MeWo and U-118 cells, and TrypLE Express was used for all other cell lines.
# (§2) The working solutions were prepared by diluting the stock solutions with complete medium so that the final concentration of DMSO in the cell culture was 1%. The working solutions were used for incubation. Control cells were treated only with complete cell culture medium containing 1% DMSO.
# (§3) Cytotoxicity MTS assay: In order to perform the MTS assay, cells were placed in culture-treated 96-well plates at densities of 5 × 10^3 cells/well (NHDF and CT-26), 7 × 10^3 cells/well (MCF7) and 10 × 10^3 cells/well (HOS, HeLa, HepG2, MeWo, LN-229, U-118) in 100 μL of a MEM medium/well and allowed to adhere for 24 h. After 24 h, the culture medium was replaced with the tested compound solutions at various concentrations, and the plates were incubated for another 48 h. Before the final reading, 20 μL CellTiter 96® Aqueous One Solution/well was added, and the plates were incubated for 1–4 h. Finally, the absorbance was recorded with a microplate reader at λ = 490 nm. The relative cell viability was expressed as a percentage of the viability of control, and the half maximal inhibitory concentration (IC50) was determined from the graphical representation of the cell viability vs. concentration. Graphical data were expressed as means ± standard error of the mean (S.E.M.). Statistical analysis was made with two-way ANOVA using Tukey’s multiple comparisons test. The difference was considered significant when p < 0.05. Data analysis was performed with GraphPad Prism software version 7.00 for Windows.
# osteosarcoma (HOS) cells = assay: Cytotoxicity MTS assay on HOS; format: cell-based, human; conditions: 48 h, tested 0.01-0.3 mM, read-out: Half maximal inhibition concentration (IC50)
# Procedure: as §1, §2, §3
# [2] = tested on: cervical carcinoma (HeLa) cells; assay: Cytotoxicity MTS assay on HeLa; format: cell-based, human; conditions: for IC50: HeLa, 48 h, MTS, tested 0.01-0.3 mM, read-out: Half maximal inhibition concentration (IC50); for Selectivity index (SI): IC50 NHDF / IC50 HeLa
# Procedure: as §1, §2, §3
# [3] = DPPH radical scavenging activity; conditions: for DPPH radical inhibition: 1 mM compound, ethanol, 1 h in the dark
# From the text: In this light, the antioxidant activity of the studied phenothiazine derivatives was investigated using DPPH assay, measuring the dependence of the free radical inhibition on the concentration as highlighted by a decreasing of the absorbance of DPPH when the concentration of the compound is increasing. The results, expressed in percentage of inhibition, are represented in Figure 4.
# Ex Vivo Radical Scavenging Activity: In order to evaluate antioxidant activity of the studied compounds, a bleaching method of the 1,1-diphenyl-2-picryl hydrazyl (DPPH) radical was used. Briefly, a stock solution of 2 mM of each compound in ethanol was prepared and then diluted to obtain 10 different concentrations from 1 mM to 0.0019 mM using a 96-well plate. The diluted solutions with different concentrations were mixed with an equal volume of ethanolic DPPH solution (0.05 mg/mL), and the mixtures were incubated in the dark at room temperature […] for 1 h. After incubation, the absorbance was read at 517 nm. Inhibition percentage was calculated using Equation (2), where Ac is the absorbance of the control sample (DPPH) and As is the absorbance of the mixtures. All measurements were made in triplicate. I % = (Ac-As)/Ac × 100 (2)
# [4] = tested on: breast cancer (MCF7) cells; assay: Cytotoxicity MTS assay on MCF-7; format: cell-based, human; conditions: for Selectivity index (SI): IC50 NHDF / IC50 MCF7; for IC50: MCF-7, 48 h, MTS, tested 0.01-0.3 mM, read-out: Half maximal inhibition concentration (IC50)
# Procedure: as §1, §2, §3
# [5] = tested on: mouse colon carcinoma cell line (CT26); assay: Cytotoxicity MTS assay on CT-26; format: cell-based; conditions: for IC50: CT-26, 48 h, MTS, tested 0.01-0.3 mM, read-out: Half maximal inhibition concentration (IC50); for Selectivity index (SI): IC50 NHDF / IC50 CT-26
# Procedure: as §1, §2, §3
# [6] = tested on: glioblastoma cell line (U-118); assay: Cytotoxicity MTS assay on U-118; format: cell-based, human; conditions: for IC50: U-118, 48 h, MTS, tested 0.01-0.3 mM, read-out: Half maximal inhibition concentration (IC50)
# Procedure: as §1, §2, §3
# [7] = tested on: malignant melanoma (MeWo) cells; assay: Cytotoxicity MTS assay on MeWo; format: cell-based, human; conditions: for Selectivity index (SI): IC50 NHDF / IC50 MeWo; for IC50: MeWo, 48 h, MTS, tested 0.01-0.3 mM, read-out: Half maximal inhibition concentration (IC50)
# Procedure: as §1, §2, §3
# [8] = tested on: glioblastoma (LN229) cells; assay: Cytotoxicity MTS assay on LN229; format: cell-based, human; conditions: tested 0.01-0.3 mM, read-out: Half maximal inhibition concentration (IC50)
# Procedure: as §1, §2, §3
# [9] = tested on: liver cancer (HepG2) cells; assay: Cytotoxicity MTS assay on HepG2; format: cell-based, human; conditions: for IC50: HepG2, 48 h, MTS, tested 0.01-0.3 mM, read-out: Half maximal inhibition concentration (IC50)
# Procedure: as §1, §2, §3
# HeLa = conditions: cited from earlier work
# MCF-7 = conditions: cited from earlier work
# HepG2 = conditions: cited from earlier work
compound,measurement,setting,value
4-((((10-(poly(ethylene glycol))-10H-phenothiazin-3-yl)methylene)amino)ethyl)benzenesulfonamide [PPEA],IC50,[1],108 µM
same,IC50,osteosarcoma (HOS) cells,> 300 µM
same,IC50,[2],86 µM
same,Selectivity index (SI),[2],1.25
same,DPPH radical inhibition,[3],47%
same,Selectivity index (SI),[4],1.11
same,IC50,[4],90 µM
same,IC50,[5],29 µM
same,Selectivity index (SI),[5],3.44
same,IC50,[6],100 µM
same,Selectivity index (SI),[7],1.66
same,IC50,[7],68 µM
same,IC50,"[8]; LN229, 48 h",109 µM
same,IC50,[9],40 µM
same,Selectivity index (SI),[9]; IC50 NHDF / IC50 HepG2,2.5
4-((((10-(poly(ethylene glycol))-10H-phenothiazin-3-yl)methylene)amino)methyl) benzenesulfonamide [PPMA],IC50,[1],150 µM
same,IC50,osteosarcoma (HOS) cells,> 300 µM
same,IC50,[2],116 µM
same,Selectivity index (SI),[2],1.36
same,DPPH radical inhibition,[3],44%
same,Selectivity index (SI),[4],1.66
same,IC50,[4],90 µM
same,IC50,[5],40 µM
same,Selectivity index (SI),[5],3.75
same,Selectivity index (SI),[6]; IC50 NHDF / IC50 U118MG,1.66
same,IC50,[6],92 µM
same,Selectivity index (SI),[7],1.5
same,IC50,[7],104 µM
same,IC50,"[8]; LN229, 48 h",239 µM
same,IC50,[9],54 µM
same,Selectivity index (SI),[9]; IC50 NHDF / IC50 HepG2,3
10-(poly(ethylene glycol))-10H-phenothiazine-3-carbaldehyde [PPF],IC50,[1],> 300 µM
same,IC50,osteosarcoma (HOS) cells,> 300 µM
same,IC50,[2],> 300 µM
same,radical scavenging capacity (in words),"[3]; DPPH, 0.0019-1 mM",very low radical scavenging capacity
same,IC50,[4],270 µM
same,IC50,[5],140 µM and 139 µM
same,IC50,[6],> 300 µM
same,IC50,[7],235 µM
same,IC50,"[8]; LN229, 48 h",> 300 µM
same,IC50,[9],100 µM and 106 µM
OC(CNCCc1ccccc1)CN1c2ccccc2Sc2ccccc21 (stereo not drawn) [1-Phenethylamino-3-(10H-phenothiazin-10-yl)-2-propanol],IC50,HeLa,10 µM
"CC(=O)c1cc(C(=O)c2ccc3c(c2)Sc2ccccc2N3)c2c(C)cc(C)cn12 [1-[(10H-Phenothiazin-3-yl)carbonyl]-3-acetyl-6,8-dimethylindolizine]",IC50,MCF-7,> 10 µM
COc1ccn2c(C(C)=O)cc(C(=O)c3ccc4c(c3)Sc3ccccc3N4)c2c1 [1-[(10H-Phenothiazin-3-yl)carbonyl]-3-acetyl-7-methoxyindolizine],IC50,MCF-7,> 10 µM
CC(=O)c1cc(C(=O)c2ccc3c(c2)Sc2ccccc2N3)c2cc(C)ccn12 [1-[(10H-Phenothiazin-3-yl)carbonyl]-3-acetyl-7-methylindolizine],IC50,MCF-7,> 10 µM
"CCN1c2ccc(-c3ccc(OC)cc3)cc2Sc2cc(-c3nnc4ccccn34)ccc21 [3-([1,2,4]Triazolo[4,3-a]pyridin-3-yl)-10-ethyl-7-(4-methoxyphenyl)-10H-phenothiazine]",IC50,MCF-7,57.2 µM
"CCN1c2ccc(-c3ccccc3)cc2Sc2cc(-c3nnc4ccccn34)ccc21 [3-([1,2,4]Triazolo[4,3-a]pyridin-3-yl)-10-ethyl-7-phenyl-10H-phenothiazine]",IC50,MCF-7,10.2 µM
"Clc1ccc(-n2cc(CN3c4ccccc4Sc4ccccc43)nn2)cc1 [10-((1-(4-Chlorophenyl)-1H-1,2,3-triazol-4-yl)methyl)-10Hphenothiazine]",IC50,HepG2,1.3 µM
"COc1ccc(-n2cc(CN3c4ccccc4Sc4ccccc43)nn2)cc1 [10-((1-(4-Methoxyphenyl)-1H-1,2,3-triazol-4-yl)methyl)-10Hphenothiazine]",IC50,HepG2,15 µM
"COc1cc(Cn2cc(CN3c4ccccc4Sc4ccccc43)nn2)cc(OC)c1OC [10-{[1-(3,4,5-Trimethoxybenzyl)-1H-1,2,3-triazol-4-yl]methyl}-10H-phenothiazine]",IC50,MCF-7,0.8 µM
"FC(F)(F)c1ccc2c(c1)N(Cc1cn(-c3ccc(Cl)cc3)nn1)c1ccccc1S2 [10-{[1-(4-Chlorophenyl)-1H-1,2,3-triazol-4-yl]methyl}-2-{trifluoromethyl}-10H-phenothiazine]",IC50,MCF-7,29.6 µM
"c1ccc2c(c1)Nc1ccccc1S2 [PTZ, phenothiazine]",IC50,[1]; Homo sapiens,175 µM
same,IC50,osteosarcoma (HOS) cells; Homo sapiens,> 300 µM
same,IC50,[2]; Homo sapiens,240 µM
same,DPPH radical inhibition,[3],67%
same,IC50,"[4]; Homo sapiens, MCF7",188 µM
same,IC50,"[5]; Mus musculus, CT26",186 µM
same,IC50,[6]; Homo sapiens,> 300 µM
same,IC50,[7]; Homo sapiens,> 300 µM
same,IC50,"[8]; Homo sapiens, LN-229, LN229, 48 h",> 300 µM
same,Selectivity index (SI),[9],2.42
same,IC50,[9]; Homo sapiens,73 µM
CN1CCN(CCCN2c3ccccc3Sc3ccc(C(F)(F)F)cc32)CC1 [Trifluoperazine],IC50,MCF-7,11.3 µM

# — publication PMC10049495, “Antitumor Activity of PEGylated and TEGylated Phenothiazine Derivatives: Structure–Activity Relationship” (International Journal of Molecular Sciences, 2023)
